Laboratory results taken from patent US20150038417A1, “GLP-1 Agonists” (Novo Nordisk A/S, priority 2011, published 2015).

Tested on: Normal male Sprague Dawley rats
Assay: Effect of liraglutide on alcohol consumption (two-bottle choice: water vs 10% alcoholic drink)
Assay type: in vivo, rat
Text: Certain strains of rats are alcohol dependent and consume large amounts of alcohol if given the choice.
Normal male Sprague Dawley rats were housed individually and fed normal rat chow. Each rat had access to two drinking bottles, one of them containing water and one of them containing a 10% alcoholic drink (diluted Toffee liquor from ALDI®). The rats were acclimatised to the alcoholic drink for a least one week. Consumption of water and the alcoholic drink were continuously recorded on line using the BIOdaq food and water intake monitoring system http://www.bodaq.com/®.
Basal water and alcoholic drink consumption was recorded on a 24 h daily basis. After this had stabilised, consumption of water and alcoholic drink was recorded over a 24 h period. […] Water and alcohol consumption were recorded for 24 h after injection.

Liraglutide (HAEGTFTSDVSSYLEGQAAKEFIAWLVRGRG; chains of the INN, looked up)
Accumulated fluid intake over 24 h, alcohol (10% alcoholic drink), after Liraglutide (Mean ± SEM) (30 μg/kg liraglutide s.c., single dose, 24 h after injection, n=8, same group before dosing 25.6 ± 0.6 g, p < 0.001, paired t-test): 16.1 ± 1.3 g | Effect on 24 h intake of alcoholic drink and water (in words) (30 μg/kg liraglutide s.c., before vs after administration): significantly and selectively reduced intake of alcoholic drink and not water | Alcohol intake compared with vehicle treated rats (in words) (rats offered to choose between alcohol and water): significantly reduces the alcohol intake
